Laboratory results published in patent US11107993B2, “Organic compound and organic electroluminescent element comprising same” (MATERIAL SCIENCE CO., LTD., priority 2015, dated 2021).

Test: Evaluation of solubility of organic compound in hexane, toluene and dichloromethane
Assay type: physicochemical
Conditions: room temperature; for solubility compared with Compound 9: summary of Table 3, toluene, dichloromethane
Experimental: Evaluation of Solubility of Organic Compound
The solubility in hexane, toluene and dichloromethane was measured for the compounds of Synthesis Example 9, and Comparative Synthesis Examples 2 and 3.

SMILES	solubility in hexane	solubility compared with Compound 9
Cc1ccc(C)c(N(c2cc(C(C)(C)C)ccc2C)c2ccc3ccc4c(N(c5cc(C)ccc5C)c5cc(C(C)(C)C)ccc5C)ccc5ccc2c3c54)c1 [Compound 1-B]	Insoluble	significantly lower solubility than Compound 9
CCc1cc(N(c2cc(C)ccc2C)c2cc(C(C)(C)C)ccc2C)c2ccc3c(CC)cc(N(c4cc(C)ccc4C)c4cc(C(C)(C)C)ccc4C)c4ccc1c2c34 [Compound 1-C]	Insoluble	significantly lower solubility than Compound 9
